“And” between values parts separate entries of the source, which are not always exact repeats. Equal values may be shown once.
How the values were obtained:
Blood glucose [1] = test: Hypoglycemic effects of oral AICA riboside prodrugs; format: in vivo, mice (Swiss Webster); conditions: equimolar amounts
Method: Male mice (Swiss Webster) were given equimolar amounts of either saline, AICA riboside, or compounds C1 or 10 of Table I orally. Blood glucose levels were measured one hour after administration by the glucose strip method (Chemstrip B.G.).

lactate and pyruvate = test: Blood lactate and pyruvate in rats; format: in vivo
Method: (§1) AICA riboside (100, 250 or 500 mg/kg) or saline (as a control) was administered intraperitoneally to rats. Sixty minutes after AICA riboside administration, the rats were sacrificed by cervical dislocation. Blood glucose was determined spectrophotometrically measuring O.D. at 340 nm by the hexokinase method using the glucose SR Reagent (Medical Analysis Systems, Inc.) Blood lactate and pyruvate were determined spectrophotometrically measuring O.D. at 340 nm using lactate dehydrogenase in the presence of excess NAD or NADH, respectively.

infarct size = test: Rat models of focal brain ischemia (partial and total reperfusion); format: in vivo; conditions: 800 mg/kg IP
Source text: (§2) The claimed prodrugs, by delivering AICA riboside should provide similar efficacy. […] Both intracerebroventricular (ICV) and IP administration of AICA riboside was effective in the gerbil model In addition to the gerbil, two different rat models of focal ischemia were also used to evaluate AICA-riboside. One model employed partial reperfusion and the second total reperfusion.

Blood Glucose [2] = test: Effect on blood glucose in rabbits (hexokinase procedure); format: in vivo, Rabbits (New Zealand White); conditions: for Blood Glucose Change(+/-): 2H post-dose vs pre-dose; for Blood Glucose Change(+/-) / Blood Glucose 2H Post-Dose: individual rabbits
Method: Rabbits (New Zealand White) were given IV doses of AICA riboside, either 2 ml/kg (100 mg/kg) or 4 ml/kg (200 mg/kg). Blood was obtained by venipuncture before AICA riboside administration and two hours post-administration. Blood glucose concentrations before administration and two hours post-administration were measured by the hexokinase procedure (see Example K). The percent change (+/-) from pre-dose values are reported. Both dosage levels decreased blood glucose levels as compared with pre-AICA riboside administration levels.
as §1

hippocampal CA-1 cells = test: Gerbil model of 5 minutes global brain ischemia followed by reperfusion; format: in vivo; conditions: ICV and IP administration
Source text: as §2

plasma glucose = test: Plasma glucose levels in non-fasted rats; format: in vivo, rats (Sprague Dawley); conditions: 750 mg/Kg, 1 hour after administration
Method: This hypoglycemic effect may contribute to the anti-ischemic properties of the molecule. Ribose is known to lower blood glucose in several animal species, including man, in relatively high doses (on the order of about 1000 mg/kg) by an unknown mechanism, possibly by inhibition of phosphoglucomutase. Accordingly, in theory, AICA riboside could cause hypoglycemia at extremely high doses ([…]) due to its ability to deliver ribose phosphate to cells. Other means of increasing intracellular ribose such as treatment with ribose itself or other nucleosides and prodrugs and analogs of them which can be metabolized to yield ribose-1-phosphate (which is converted ribose-5-phosphate) or ribose-5-phosphate may also lower blood sugar. […] At higher doses of AICA riboside, hypoglycemic seizures and death were induced in rabbits and mice. We have found rats to also be sensitive to the hypoglycemic effects of AICA riboside. Initial studies were performed using non-fasted rats (Sprague Dawley) and mice (Swiss-Webster). […] In non-fasted mice the decrease of glucose levels at this dose was greater, On the order of 30-50%. In both cases the hypoglycemia was statistically significant at the p <.01 level. […] In fasted mice, AICA riboside is potent in lowering blood glucose. (See e.g., Figure 6). In fasted mice AICA riboside may cause seizures at doses of 500 mg/Kg and above. […]

insulin [3] = test: Plasma insulin levels in humans; format: in vivo; conditions: human subjects; precedes the drop in blood glucose
Method: Human (male) volunteers were given a 15-minute intravenous infusion of 50 mg/kg AICA riboside. Plasma concentrations of immunoreactive insulin was determined by RIA during and following the administration for about 4 hours. (RIA kit, Amersham Clinical).

insulin [4] = test: Blood insulin levels in rats; format: in vivo; conditions: high doses, early time points
Source text: This leads to investigation of the mechanism of AICA riboside induced hypoglycemia. […] This adenosine induced hyperglycemia is reversed by adenosine receptor antagonists (theophylline and sulphophenyltheophylline). Additionally, the AICA riboside-induced hypoglycemia is not blocked by theophylline. It is therefore concluded that the AICA riboside effect on plasma glucose is not mediated by adenosine. […] (See Figure 13).

[5] = 2ml (100 mg/kg) IV, rabbit 10 not included

`NC(=O)c1ncn([C@@H]2O[C@H](CO)[C@@H](O)[C@H]2O)c1N` [AICA riboside, 1-β-D-ribofuranosyl-5-aminoimidazole-4-carboxamide] was tested, and the “hypoglycemia after oral administration” value (Blood glucose [1]) was “did not produce detectable hypoglycemia”, the “lactate to pyruvate ratio” value (lactate and pyruvate) was “not changed” and the “liver glycogen, serum lactate and pyruvate” value (lactate and pyruvate) was “elevation of liver glycogen and of serum lactate and pyruvate”. For the same compound, the infarct size (infarct size) was “highly significant reduction in infarct size”, the “Blood Glucose Change(+/-)” value (Blood Glucose [2]; 2ml (100 mg/kg) IV) was -25 mg% and +102* mg% and -24 mg% (2×) and -28 mg% and +10 mg% and -22 mg% and -23 mg% and -11 mg% and -53 mg% and the “Blood Glucose 2H Post-Dose” value (Blood Glucose [2]; 2ml (100 mg/kg) IV) was 93 mg% and 215* mg% and 87 mg% and 89 mg% (2×) and 122 mg% and 96 mg% and 98 mg% and 106 mg% and 99 mg%. For the same compound, the “Blood Glucose 2H Post-Dose, Mean” value (Blood Glucose [2]; [5]) was 98 mg%, the “Blood Glucose Change(+/-), Mean” value (Blood Glucose [2]; [5]) was -22 mg% and the “Blood Glucose Change(+/-)” value (Blood Glucose [2]; 4ml (200mg)/kg IV) was -14 mg% and -76 mg% and -42 mg% and -69 mg% and -59 mg%. For the same compound, the “Blood Glucose 2H Post-Dose” value (Blood Glucose [2]; 4ml (200mg)/kg IV) was 100 mg% and 32** mg% and 79 mg% and 56 mg% and 62 mg%, the “Blood Glucose 2H Post-Dose, Mean” value (Blood Glucose [2]; 4ml (200mg)/kg IV) was 66 mg% and the “Blood Glucose Change(+/-), Mean” value (Blood Glucose [2]; 4ml (200mg)/kg IV) was -52 mg%. For the same compound, the “degeneration of hippocampal CA-1 cells” value (hippocampal CA-1 cells) was “prevented the degeneration of hippocampal CA-1 cells”, the “Decreases in plasma glucose levels” value (plasma glucose) was 30-40% and the serum insulin levels (insulin [3]) was “significant elevations of serum insulin levels”. The blood insulin levels (insulin [4]) was “suppress blood insulin levels”.
